Assay results: patent US20140349989A1, “COMPOUNDS AND THERAPEUTIC USES THEREOF” (Alzheimer's Institute of America, priority 2011, published 2014)
Where two headings read alike, the source gives them in different places.

Assays:
[1] = target: T1, Human NAMPT (Homo sapiens, UniProt P43490); experiment: Nampt Activity Assay (coupled enzyme fluorometric, resazurin/diaphorase); assay type: biochemical; conditions: His-tagged human NAMPT, 3 μM NAM, 8 μM PRPP, room temperature up to 3 hours; read-out: in vitro IC50 (Nampt catalytic activity)
T1 construct: 6xHis (N); made in house; host or cells: E. coli BL21-AI
T1 sequence (P43490 whole entry): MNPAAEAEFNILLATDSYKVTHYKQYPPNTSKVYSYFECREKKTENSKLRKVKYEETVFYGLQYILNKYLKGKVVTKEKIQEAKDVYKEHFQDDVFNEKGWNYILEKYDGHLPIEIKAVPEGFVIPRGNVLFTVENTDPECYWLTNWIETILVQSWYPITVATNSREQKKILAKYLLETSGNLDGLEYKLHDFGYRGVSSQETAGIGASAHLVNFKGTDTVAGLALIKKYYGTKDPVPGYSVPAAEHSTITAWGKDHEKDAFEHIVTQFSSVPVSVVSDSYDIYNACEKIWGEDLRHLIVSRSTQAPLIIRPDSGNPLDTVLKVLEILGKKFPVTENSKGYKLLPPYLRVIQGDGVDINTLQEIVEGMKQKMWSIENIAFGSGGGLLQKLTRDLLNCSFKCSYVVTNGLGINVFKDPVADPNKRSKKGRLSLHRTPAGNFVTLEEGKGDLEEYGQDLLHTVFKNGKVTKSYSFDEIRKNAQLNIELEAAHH
Description: 5-phosphoribosyl-1-pyrophosphate (PRPP), ATP, NaM, NaMN, Triton X-100, UDP-glucose and diaphorase were purchased from Sigma-Aldrich, St. Louis, Mo. Human NAMPT, NMN adenylyltransferase (NMNAT1) and UDP-glucose dehydrogenase (UGDH) encoding DNAs were each inserted into a house-modified E. Coli expression vector such that the expressed proteins carried an N-terminal 6×His tag. The His-tagged proteins were expressed in the BL21-AI E. Coli expression strain (Invitrogen Corporation, Carlsbad, Calif.) following induction by 0.2% L-arabinose and 0.5 mM IPTG at 30° C. Proteins were purified on Ni-NTA resin (Qiagen, Germantown, Md.).
The assay for Nampt catalytic activity was constructed based on a previously published coupled enzyme fluorometric technique, which employs NADH as ultimate analyte (Revollo, J. R. et al. Biol. Chem. 279, 50754-50763 (2004)). A substantial improvement in assay sensitivity was achieved by switching from direct detection to a resazurin/diaphorase-based fluorometric detection system for NADH (Guilbault, G. G., and Kramer, D. N. Anal. Chem. 37, 1219-1221 (1965)). The standard inhibition analyses were performed in a real-time mode in 96-well microtiter plates using 50 mM Tris-HCl, pH 7.5, 1% DMSO (v/v), 0.01% Triton X-100 (v/v), 10 mM MgCl2, 2 mM ATP, 3 μM NAM, 8 μM PRPP, […], as well as the following detection reagents: 5 nM Nmnat, 200 nM Ugdh, 200 μM UDP-glucose, 0.02 U/mL diaphorase and 0.25 μM resazurin. Incubation of samples at room temperature for up to 3 hours was followed by quantification of fluorescence intensities at excitation and emission wavelengths of 510 nm and 590 nm, respectively, using Gemini XS plate reader (Molecular Devices, Sunnyvale, Calif.). The counter-assay intended to disqualify false positives, such as inhibitors of detection enzymes or fluorescence quenchers, was carried out essentially as described above with an exception that 1 μM NaMN was substituted for Nampt.

[2] = Cytotoxicity Assay (HCT116, CellTiter-Glo); assay type: cell-based; conditions: human
Summary of the method: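 Cells settled overnight, then exposed to compound in DMSO for 72 h, optionally with nicotinic acid (10 μM final) added alongside. Viability read as CellTiter-Glo luminescence.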

IC50 [1]: ~1 nM
Compound: O=C(/C=C/c1ccc(-n2cc(CCN3CCOCC3)c3ccccc32)cc1)NCc1cccnc1 [Compound 175, (2E)-3-(4-{3-[2-(Morpholin-4-yl)ethyl]-1H-indol-1-yl}phenyl)-N-(pyridin-3-ylmethyl)prop-2-enamide]
IC50 at 72 h ([2]; HCT116 cell cytotoxicity IC50): ~7 nM | IC50 at 72 h ([2]; HCT116 cells, 72 hours drug incubation, CellTiter-Glo luminescence, read-out: HCT116 cell cytotoxicity IC50): < 100 nM
